Results as given in patent US4816474A, “Amino substituted thienothiopyran derivatives, composition containing them, and method of using them to stimulate presynaptic dopamine receptors” (Ciba-Geigy Corporation, priority 1987, dated 1989).
Structures can show the parent of a compound that is named as a salt.

Key:
[1] = test system: presynaptic dopamine receptor (dopamine autoreceptor); assay: GBL model in the rat: in-vivo presynaptic dopamine agonist (dopamine autoreceptor agonist) activity, inhibition of GBL-induced DOPA accumulation; details: dose inhibiting DOPA accumulation by 50%
Procedure: The in-vivo presynaptic dopamine agonist activity (also called dopamine autoreceptor agonist activity) is determined in the rat gamma-butyrolactone (GBL) model by a modification of the procedure described by Walters and Roth, Naunyn Schmiedeberg's Arch. Pharmacol. 296, 5 (1976). In this model, a presynaptic dopamine agonist inhibits the GBL-induced accumulation of the dopamine precursor DOPA in the brain after pretreatment with 3-hydroxybenzylhydrazine (NDS-1015), a DOPA decarboxylase inhibitor.
Test compounds are dissolved in 0.9% saline, with sodium metabisulfite to prevent oxidation, if required. Animals are treated with i.p. injections of solutions of test compounds or saline, followed by gamma-butyrolactone (GBL, 750 mg/kg i.p.) or saline for control animals 15 minutes later, and finally with NSD-1015 (100 mg/kg i.p.) 5 minutes after the administration of GBL. Thirty minutes after the administration of NSD-1015, animals are sacrificed, brains are removed, and striatae are isolated, then frozen at -70° C. until deproteinization, extraction and analysis. The ED50 (dose at which the DOPA accumulation is inhibited by 50%) values are determined by plotting the percent inhibition of DOPA accumulation versus log10 of the dose of test compound administered. The same method is also applicable to oral administration of the test compounds.

[2] = molecular target: presynaptic dopamine receptor; assay: 3H-ADTN presynaptic dopamine receptor binding assay (displacement of 3H-ADTN from calf caudate nucleus membranes); details: inhibition of specific binding of 0.2 nM 3H-ADTN by 50%, 60 min, 25° C.
Procedure: The presynaptic dopamine receptor binding properties indicative of the presynaptic dopamine receptor regulatory, e.g. agonistic activity, of the compounds of the invention can be determined in the dopamine binding assay in vitro by the following method involving the displacement of the dopamine agonist 2-amino-6,7-dihydroxy-1,2,3,4-tetrahydronaphthalene (^3 H-ADTN) from membranes of calf-caudate nucleus.
In the binding assay, triplicate 2 ml samples (equivalent to 5 mg/ml of brain tissue) of the calf brain caudate nucleus membrane suspension are incubated for 60 minutes at 25° C. with 0.2 nM ^3 H-ADTN without or in the presence of various concentrations of test compound in solvent. The reaction is terminated by filtering with 5 ml of cold 50 mM Tris-HCl buffer pH 7.7. The filters are placed in scintillation vials with 5 ml of scintillation solution, disrupted by vigorous mechanical shaking for 90 minutes, and counted for radioactivity.
The IC50 values which represent the concentration of test compounds required to inhibit the specific binding of 0.2 nM ^3 H-ADTN by 50% are determined graphically.

Compound | ED50 in the GBL model ([1]; i.p.) | ED50 in the GBL model ([1]; p.o.) [mg/kg] | IC50 [2] [nM]
CCCN(CCC)C1CSc2sccc2C1 (stereo not drawn) [5-dipropylamino-5,6-dihydro-4H-thieno[2,3-b]thiopyran] | about 2.6 mg/kg | ~5.6 | –
CCCN(CCC)C1CSc2sccc2C1 (stereo not drawn) [N,N-dipropyl-5,6-dihydro-4H-thieno[2,3-b]thiopyran-5-amine hydrochloride] | – | – | ~150
